Measurements published in the OPERA property sets (Mansouri et al. 2018).

SMILES | melting point [°C] | boiling point [°C] | log10 Henry constant (atm·m³/mol) | log10 vapour pressure (mmHg) | ready biodegradability | log10 Koa | log10 Koc (L/kg)
Cc1nc([N+](=O)[O-])cn1-c1ccc([N+](=O)[O-])cc1 | 186 | – | – | – | – | – | –
Cc1ccccc1C=O | – | 200 | – | – | – | – | –
CCCCCCO | -44.6 | 158 | -4.77 | -0.0325 | readily biodegradable | – | –
CCCCCCCCCCCCCC=O | 20.5 | 260 | – | – | – | – | –
Cc1cocn1 | – | 88 | – | – | – | – | –
CC(=O)c1ccccc1C(=O)O | 114 | – | – | – | – | – | –
N#Cc1ccccc1 | -12.7 | 191 | – | -0.115 | readily biodegradable | 4.46 | –
CCCCCCCCCCCCCCCC(=O)OC[C@H](O)[C@H]1OC(=O)C(O)=C1O | 116 | – | – | – | – | – | –
Cc1ccc2c(c1N)C(=O)c1ccccc1C2=O | 206 | – | – | – | – | – | 3.9
CCCC(O)C(C)(C)C (configuration not stated) | – | 156 | – | – | – | – | –
Cl[C@H]1[C@H](Cl)[C@@H](Cl)[C@H](Cl)[C@@H](Cl)[C@H]1Cl (racemic) | – | – | – | – | not readily biodegradable | – | –
Oc1ccc2cccnc2c1 | 239 | – | – | – | – | – | –
CCC(C)c1ccc(O)c([N+](=O)[O-])c1 (configuration not stated) | – | – | -4.02 | -2.34 | – | – | –
C=CCC(C(=O)NC(N)=O)C(C)C (configuration not stated) | 194 | – | – | – | – | – | –
CCNC(=O)Nc1ncc([N+](=O)[O-])s1 | 228 | – | – | – | – | – | –
COC(=O)c1c(Cl)nn(C)c1S(=O)(=O)NC(=O)Nc1nc(OC)cc(OC)n1 | 176 | – | – | – | – | – | –
CCOC(=O)c1ccncc1 | 23 | 220 | – | – | – | – | –
C=CCC(C)CCC (configuration not stated) | – | 113 | – | – | – | – | –
C#C[C@]1(O)CC[C@H]2[C@@H]3CCC4=Cc5oncc5C[C@]4(C)[C@H]3CC[C@@]21C | 226 | – | – | – | – | – | –
O=[N+]([O-])N1CCCCC1 | -5.5 | 245 | – | – | – | – | –
O=C(NC(=O)c1ccccc1Cl)Nc1ccc(OC(F)(F)F)cc1 | 195 | – | – | -9.52 | – | – | –
c1ccc(OCC2CO2)cc1 (configuration not stated) | 3.5 | 245 | – | -2 | not readily biodegradable | – | –
CC(=O)[C@H]1CC[C@H]2[C@@H]3CC[C@H]4C[C@H](N)CC[C@]4(C)[C@H]3CC[C@]12C | 126 | – | – | – | – | – | –
CCOP(=O)(OCC)OC(=CCl)c1ccc(Cl)cc1Cl | -20 | – | – | -5.12 | – | – | 2.47
CCCCCCCCC(=O)N(CCO)CCO | – | – | – | – | readily biodegradable | – | –

SMILES | melting point [°C] | boiling point [°C] | log10 Henry constant (atm·m³/mol) | log10 vapour pressure (mmHg) | ready biodegradability | log10 Koa | log10 Koc (L/kg)
S=C(SC(=S)N1CCCCC1)N1CCCCC1 | 110 | – | – | – | – | – | –
FC(F)(F)CBr | -93.9 | 26 | – | – | – | – | –
Clc1ccc(Cl)s1 | -40.5 | 162 | – | 0.934 | – | – | –
CC | -183 | -88.6 | – | 4.5 | – | 0.42 | –
CCCCCCCC/C=C\CCCCCCCC(=O)[O-].[NH4+] | 71 | – | – | – | – | – | –
Oc1nc(O)c2nccnc2n1 | 348 | – | – | – | – | – | –
CC(C)C(C)(C)C(C)C | -102 | 142 | – | 0.946 | – | – | –
CCc1ccnc(C)c1 | – | 179 | – | – | – | – | –
CC(CN1C(=O)c2cccnc2Nc2ccccc21)N(C)C (configuration not stated) | 122 | – | – | – | – | – | –
COc1ccc(-c2ccccc2)cc1 | 90 | – | – | – | – | – | –
C=CC(=O)OCC(CC)CC | -70 | – | – | 0.23 | – | – | –
CN.Cl | 228 | – | – | – | – | – | –
CCCCC(C)C(C)CC (configuration not stated) | – | 163 | – | – | – | – | –
CCCC(=O)CC(C)C | – | 155 | – | – | – | – | –
Clc1cc(Cl)c2oc3cc(Cl)c(Cl)cc3c2c1 | 202 | – | – | -7.71 | – | – | –
CC(=O)OC(C(=O)Cl)c1ccccc1 (configuration not stated) | 36 | – | – | – | – | – | –
Cc1cccc(Br)c1 | -39.8 | 184 | – | 0.185 | – | – | –
Nc1ccc(O)c(C(=O)O)c1 | 283 | – | – | – | – | – | –
Nc1cc(F)c(F)c(F)c1F | 28 | – | – | – | – | – | –
CC(C)(O)C#N | -19 | 171 | – | -0.467 | readily biodegradable | – | –
O=[N+]([O-])c1cc(C2CCCCC2)c(O)c([N+](=O)[O-])c1 | 107 | – | – | – | – | – | –
O=S1CCCC1 | – | 236 | – | – | – | – | –
C[C@H]1C[C@H]1C(=O)O | – | 191 | – | – | – | – | –
C=CC(=C)Cl | -130 | 59.4 | – | 2.33 | – | – | –
Clc1cc(Cl)c2oc3c(Cl)c(Cl)ccc3c2c1 | 164 | – | – | -7.48 | – | – | –
